Test results published in patent EP4786487A1, “PEPTIDE” (Peptidream Inc, priority 2023, dated 2025).
Where two headings read alike, the source gives them in different places. Starred links: 1 amine or outer side, 2 acyl side, 3 side chain; linkers in the order of their positions; H or OH if unused. Positions of bridges follow the written chain, without caps; N, C: chain ends. Non-standard residues stand in square brackets, D forms with d. Residues, ends and D or L forms follow the SMILES beside them. *: point of attachment. Phe(3-OCH2COOH) = N[C@@H](Cc1cccc(OCC(=O)O)c1)C(=O)O; Trp(1-Ph) = N[C@@H](Cc1cn(-c2ccccc2)c2ccccc12)C(=O)O; NMePhe(3-Ph) = CN[C@@H](Cc1cccc(-c2ccccc2)c1)C(=O)O; X11 = O=C([C@H](Cc1ccc(-c2ccccc2Cl)cc1)N[*:1])[*:2]; Trp(6-OH) = N[C@@H](Cc1c[nH]c2cc(O)ccc12)C(=O)O; Phe(4-COOH) = N[C@@H](Cc1ccc(C(=O)O)cc1)C(=O)O; Trp(6-aza) = N[C@@H](Cc1c[nH]c2cnccc12)C(=O)O; Piperazinyl(4-CH2COOH) = O=C(O)CN1CCN(*)CC1; Piperidinyl(4-CH2COOH) = O=C(O)CC1CCN(*)CC1; Gly(decyl) = CCCCCCCCCC[C@H](N)C(=O)O; X1 = CCCCCCC[C@H](N[*:1])C(=O)[*:2]; NMeF = CN[C@@H](Cc1ccccc1)C(=O)O; NMeE = CN[C@@H](CCC(=O)O)C(=O)O; Cha = N[C@@H](CC1CCCCC1)C(=O)O; NMeA = CN[C@@H](C)C(=O)O; NPrGly = CCCNCC(=O)O; NEtG = CCNCC(=O)O; Sar = CNCC(=O)O

Legend:
Myostatin = biological target: T1, Myostatin (Homo sapiens, UniProt O14793); assay: HepG2 reporter gene assay, Evaluation Procedure (2): 2-concentrations assay, myostatin inhibition; assay type: cell-based; conditions: Table 7-3/7-4, myostatin 10 ng/mL, HepG2, read-out: inhibition rate (myostatin inhibition assay); for inhibition at 0.1 µM: peptide at the higher of the 2 concentrations; for inhibition at 0.03 µM: peptide at the lower of the 2 concentrations
T1 construct: active myostatin (also called mature myostatin) is a homodimer consisting of two C-terminal growth factor domains; purchased R&D systems 788-G8/CF
T1 sequence (O14793 267-375): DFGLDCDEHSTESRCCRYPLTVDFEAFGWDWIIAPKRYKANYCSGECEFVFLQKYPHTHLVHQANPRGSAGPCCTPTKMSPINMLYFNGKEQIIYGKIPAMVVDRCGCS
Method in brief: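 HepG2 cells (HB-8065, ATCC) carrying the transfected pGL3(CAGA)12-luc reporter plasmid were treated with myostatin (788-G8/CF, R&D systems) at a final concentration of 10 ng/mL plus peptide and incubated at 37°C, 5% CO2 for 20 to 24 hours. Luminescence was read after adding PBS mixed 1:1 with One-Glo substrate, and inhibition rate was calculated.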

GDF-11 = biological target: T2, GDF-11 (Homo sapiens, UniProt O95390); assay: HepG2 reporter gene assay, Evaluation Procedure (2): 2-concentrations assay, GDF-11 inhibition; assay type: cell-based; conditions: read-out: inhibition rate (GDF-11 inhibition assay)
T2 construct: purchased R&D systems 1958-GD-G8/CF
T2 sequence (O95390 299-407): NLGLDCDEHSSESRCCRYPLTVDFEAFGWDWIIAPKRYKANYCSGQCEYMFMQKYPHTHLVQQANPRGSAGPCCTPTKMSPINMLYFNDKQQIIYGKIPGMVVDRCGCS
Method in brief: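 HepG2 cells carrying the transfected pGL3(CAGA)12-luc reporter, a pGL3 vector with luciferase placed downstream of 12 CAGA repeats, were stimulated with GDF-11 at a final 10 ng/mL together with test peptide. Blank wells received no GDF-11 and no peptide. Plates were incubated 20 to 24 hours at 37°C with 5% CO2. Luminescence from One-Glo substrate was read to calculate percent inhibition.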

[1] = HepG2, first GDF-11 column of Table 7-3/7-4, GDF-11 10 ng/mL, peptide at the lower of the 2 concentrations
[2] = HepG2, second GDF-11 column of Table 7-3/7-4, GDF-11 10 ng/mL, peptide at the higher of the 2 concentrations

inhibition at 0.1 µM (Myostatin) [%] | inhibition at 0.03 µM (Myostatin) [%] | inhibition (GDF-11; [1]) [%] | inhibition (GDF-11; [2]) [%] | Structure (SMILES)
100 | 100 | 49 | 86 | CCCCCCC[C@@H]1NC(=O)[C@H](Cc2ccccc2)N(C)C(=O)[C@H](CCCNC(=N)N)NC(=O)[C@H](Cc2ccc(C(=O)O)cc2)NC(=O)[C@H](Cc2ccc(-c3ccccc3Cl)cc2)NC(=O)CN(C)C(=O)[C@H]([C@@H](C)CC)NC(=O)[C@H](Cc2ccccc2)N(C)C(=O)[C@H](Cc2ccc(O)cc2)NC(=O)[C@H](Cc2c[nH]c3cc(O)ccc23)NC(=O)[C@H](C)NC(=O)[C@H](C)NC(=O)CSC[C@H](C(=O)N2CCN(CC(=O)O)CC2)NC(=O)[C@H](Cc2ccccc2)N(C)C(=O)[C@H](CCC(=O)O)N(C)C1=O [Myostatin_99_v325] ({CH2CO}-AA[Trp(6-OH)]Y[NMeF]I[Sar][X11][Phe(4-COOH)]R[NMeF][X1][NMeE][NMeF][dC]-{Piperazinyl(4-CH2COOH)}; thioether N-15)
100 | 100 | 0 | 0 | CCCCCCC[C@@H]1NC(=O)[C@H](Cc2ccccc2)N(C)C(=O)[C@H](CCCNC(=N)N)NC(=O)[C@H](Cc2ccc(C(=O)O)cc2)NC(=O)[C@H](Cc2cccc(OCC(=O)O)c2)NC(=O)[C@H](C)N(C)C(=O)[C@H]([C@@H](C)CC)NC(=O)[C@H](Cc2ccccc2)N(C)C(=O)[C@H](Cc2ccc(O)cc2)NC(=O)[C@H](Cc2cn(-c3ccccc3)c3ccccc23)NC(=O)[C@H](C)NC(=O)[C@H](C)NC(=O)CSC[C@H](C(=O)N2CCN(CC(=O)O)CC2)NC(=O)[C@H](Cc2cccc(-c3ccccc3)c2)N(C)C(=O)[C@H](CCC(=O)O)N(C)C1=O [Myostatin_99_v330] ({CH2CO}-AA[Trp(1-Ph)]Y[NMeF]I[NMeA][Phe(3-OCH2COOH)][Phe(4-COOH)]R[NMeF][X1][NMeE][NMePhe(3-Ph)][dC]-{Piperazinyl(4-CH2COOH)}; thioether N-15)
100 | 100 | 0 | 0 | CCCCCCCCCC[C@@H]1NC(=O)[C@H](Cc2ccccc2)N(C)C(=O)[C@H](CCCNC(=N)N)NC(=O)[C@H](Cc2ccc(C(=O)O)cc2)NC(=O)[C@H](Cc2cccc(OCC(=O)O)c2)NC(=O)[C@H]2CCCN2C(=O)[C@H]([C@@H](C)CC)NC(=O)[C@H](Cc2ccccc2)N(C)C(=O)[C@H](Cc2ccc(O)cc2)NC(=O)[C@H](Cc2cn(-c3ccccc3)c3ccccc23)NC(=O)[C@H](C)NC(=O)[C@H](C)NC(=O)CSC[C@H](C(=O)N2CCN(CC(=O)O)CC2)NC(=O)[C@H](Cc2cccc(-c3ccccc3)c2)N(C)C(=O)[C@H](CCC(=O)O)N(C)C1=O [Myostatin_99_v331] ({CH2CO}-AA[Trp(1-Ph)]Y[NMeF]I[dP][Phe(3-OCH2COOH)][Phe(4-COOH)]R[NMeF][Gly(decyl)][NMeE][NMePhe(3-Ph)][dC]-{Piperazinyl(4-CH2COOH)}; thioether N-15)
100 | 100 | 0 | 0 | CCCCCCCCCC[C@@H]1NC(=O)[C@H](CC2CCCCC2)NC(=O)[C@H](CCCNC(=N)N)NC(=O)[C@H](Cc2ccc(C(=O)O)cc2)NC(=O)[C@H](Cc2cccc(OCC(=O)O)c2)NC(=O)[C@H](C)N(C)C(=O)[C@H]([C@@H](C)CC)NC(=O)[C@H](Cc2ccccc2)N(C)C(=O)[C@H](Cc2ccc(O)cc2)NC(=O)[C@H](Cc2cn(-c3ccccc3)c3ccccc23)NC(=O)[C@H](C)NC(=O)[C@H](C)NC(=O)CSC[C@H](C(=O)N2CCN(CC(=O)O)CC2)NC(=O)[C@H](Cc2cccc(-c3ccccc3)c2)N(C)C(=O)[C@H](CCC(=O)O)N(C)C1=O [Myostatin_99_v332] ({CH2CO}-AA[Trp(1-Ph)]Y[NMeF]I[NMeA][Phe(3-OCH2COOH)][Phe(4-COOH)]R[Cha][Gly(decyl)][NMeE][NMePhe(3-Ph)][dC]-{Piperazinyl(4-CH2COOH)}; thioether N-15)
100 | 100 | 0 | 34 | CCCCCCCCCC[C@@H]1NC(=O)[C@H](CC2CCCCC2)NC(=O)[C@H](CCCNC(=N)N)NC(=O)[C@H](Cc2ccc(C(=O)O)cc2)NC(=O)[C@H](Cc2cccc(OCC(=O)O)c2)NC(=O)[C@H](C)N(C)C(=O)[C@H]([C@@H](C)CC)NC(=O)[C@H](Cc2ccccc2)N(C)C(=O)[C@H](Cc2ccc(O)cc2)NC(=O)[C@H](Cc2cn(-c3ccccc3)c3ccccc23)NC(=O)[C@H](C)NC(=O)[C@H](C)NC(=O)CSC[C@H](C(=O)N2CCN(CC(=O)O)CC2)NC(=O)[C@H](Cc2ccccc2)N(C)C(=O)[C@H](CCC(=O)O)N(C)C1=O [Myostatin_99_v333] ({CH2CO}-AA[Trp(1-Ph)]Y[NMeF]I[NMeA][Phe(3-OCH2COOH)][Phe(4-COOH)]R[Cha][Gly(decyl)][NMeE][NMeF][dC]-{Piperazinyl(4-CH2COOH)}; thioether N-15)
99 | 90 | 0 | 0 | CCCCCCCCCC[C@@H]1NC(=O)[C@H](Cc2ccccc2)N(C)C(=O)[C@H](CCCNC(=N)N)NC(=O)[C@H](Cc2ccc(C(=O)O)cc2)NC(=O)[C@H](Cc2cccc(OCC(=O)O)c2)NC(=O)CN(CCC)C(=O)[C@H]([C@@H](C)CC)NC(=O)[C@H](Cc2ccccc2)N(C)C(=O)[C@H](Cc2ccc(O)cc2)NC(=O)[C@H](Cc2c[nH]c3ccccc23)NC(=O)[C@H](C)NC(=O)[C@H](C)NC(=O)CSC[C@H](C(=O)N2CCC(CC(=O)O)CC2)NC(=O)[C@H](Cc2ccccc2)N(C)C(=O)[C@H](CCC(=O)O)N(C)C1=O [Myostatin_99_v334] ({CH2CO}-AAWY[NMeF]I[NPrGly][Phe(3-OCH2COOH)][Phe(4-COOH)]R[NMeF][Gly(decyl)][NMeE][NMeF][dC]-{Piperidinyl(4-CH2COOH)}; thioether N-15)
100 | 99 | 0 | 0 | CCCCCCCCCC[C@@H]1NC(=O)[C@H](Cc2ccccc2)N(C)C(=O)[C@H](CCCNC(=N)N)NC(=O)[C@H](Cc2ccc(C(=O)O)cc2)NC(=O)[C@H](Cc2cccc(OCC(=O)O)c2)NC(=O)CN(CC)C(=O)[C@H]([C@@H](C)CC)NC(=O)[C@H](Cc2ccccc2)N(C)C(=O)[C@H](Cc2ccc(O)cc2)NC(=O)[C@H](Cc2c[nH]c3ccccc23)NC(=O)[C@H](C)NC(=O)[C@H](C)NC(=O)CSC[C@H](C(=O)N2CCC(CC(=O)O)CC2)NC(=O)[C@H](Cc2ccccc2)N(C)C(=O)[C@H](CCC(=O)O)N(C)C1=O [Myostatin_99_v336] ({CH2CO}-AAWY[NMeF]I[NEtG][Phe(3-OCH2COOH)][Phe(4-COOH)]R[NMeF][Gly(decyl)][NMeE][NMeF][dC]-{Piperidinyl(4-CH2COOH)}; thioether N-15)
96 | 82 | 0 | 0 | CCCCCCCCCC[C@@H]1NC(=O)[C@H](Cc2ccccc2)N(C)C(=O)[C@H](CCCNC(=N)N)NC(=O)[C@H](Cc2ccc(C(=O)O)cc2)NC(=O)[C@H](Cc2cccc(OCC(=O)O)c2)NC(=O)CN(CCC)C(=O)[C@H]([C@@H](C)CC)NC(=O)[C@H](Cc2ccccc2)N(C)C(=O)[C@H](Cc2ccc(O)cc2)NC(=O)[C@H](Cc2c[nH]c3cnccc23)NC(=O)[C@H](C)NC(=O)[C@H](C)NC(=O)CSC[C@H](C(=O)N2CCC(CC(=O)O)CC2)NC(=O)[C@H](Cc2ccccc2)N(C)C(=O)[C@H](CCC(=O)O)N(C)C1=O [Myostatin_99_v337] ({CH2CO}-AA[Trp(6-aza)]Y[NMeF]I[NPrGly][Phe(3-OCH2COOH)][Phe(4-COOH)]R[NMeF][Gly(decyl)][NMeE][NMeF][dC]-{Piperidinyl(4-CH2COOH)}; thioether N-15)
100 | 95 | 0 | 0 | CCCCCCCCCC[C@@H]1NC(=O)[C@H](Cc2ccccc2)N(C)C(=O)[C@H](CCCNC(=N)N)NC(=O)[C@H](Cc2ccc(C(=O)O)cc2)NC(=O)[C@H](Cc2cccc(OCC(=O)O)c2)NC(=O)CN(C)C(=O)[C@H]([C@@H](C)OC)NC(=O)[C@H](Cc2ccccc2)N(C)C(=O)[C@H](Cc2ccc(O)cc2)NC(=O)[C@H](Cc2c[nH]c3ccccc23)NC(=O)[C@H](C)NC(=O)[C@H](C)NC(=O)CSC[C@H](C(=O)N2CCC(CC(=O)O)CC2)NC(=O)[C@H](Cc2ccccc2)N(C)C(=O)[C@H](CCC(=O)O)N(C)C1=O [Myostatin_99_v340] ({CH2CO}-AAWY[NMeF]T(Me)[Sar][Phe(3-OCH2COOH)][Phe(4-COOH)]R[NMeF][Gly(decyl)][NMeE][NMeF][dC]-{Piperidinyl(4-CH2COOH)}; thioether N-15)
